Data taken from ChEMBL document CHEMBL5606458, “ASAP - ZIKV NS2B-NS3 protease fluorescence single point” (2024).

target: Nonstructural protein 3 (Zika virus) (UniProt A0A024AXB9); assay: Functional biochemical assay to identify treatments for viral infectious disease that targets Zika NS2B-NS3 protease. Utilizing a direct enzyme activity measurement method, reading the fluorescence intensity is used to characterize the relative potency of inhibitors as % inhibition. Synthetic construct has been made based on Zika virus (strain PRVABC59) by Centre for Medicines Discovery, University of Oxford, and the assay has been performed by Stanford University.The protocol is publicly available: dx.doi.org/10.17504/protocols.io.4r3l29533v1y/v1; settings: Concentration 25.0 uM, Number of replicates 1.0
Sequence (A0A024AXB9 as listed by the source): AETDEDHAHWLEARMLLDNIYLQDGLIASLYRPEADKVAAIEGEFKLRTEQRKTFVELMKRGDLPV

Compound	inhibition [%]
CC[C@H]1CO[C@H](C)CN1c1ccc(C=O)cn1	61.5
Cc1c(C=O)c2ccccn2c1C(=O)c1ccncc1	48.3
O=Cc1ccc(N2CCC(C(=O)O)CC2)cc1	66
O=Cc1ccc(N2CCCCCC2)cc1	46.5
Cc1nc(C=O)c2ccccn12	45
O=Cc1ccc(N2CCCCC2)cc1	49
CN(C)c1ccc(C=C(C#N)C(N)=O)cc1	50.7
O=Cc1nc(-c2ccccc2Cl)n2ccccc12	48.3
Cc1c(C=O)c2ccccn2c1C#N	48.9
Nc1ccc2ccc(B(O)O)cc2c1	81
O=Cc1ccc(N2CCC(C(=O)O)CC2)o1	55.4
Cc1cc(NS(=O)(=O)c2ccc(S(=O)(=O)F)cc2)c[nH]c1=O	60.6
